Measured values reported in the NIST ThermoML archive (doi:10.1016/j.jct.2017.02.009).
± gives the expanded uncertainty stated by the source.

Legend:
[1] = xn = mol fraction of the nth substance listed; details: 100 kPa, Liquid, x1 = 1; for mass density: Vibrating tube method
[2] = 100 kPa, Liquid; for mass density: Vibrating tube method; for viscosity: Capillary tube (Ostwald / Ubbelohde) method

Compound	mass density ([1]; 293.15 K) [kg/m3]	viscosity ([1]; 298.15 K, Capillary tube (Ostwald / Ubbelohde) method) [mPa·s]	mass density ([1]; 298.15 K) [kg/m3]	mass density ([1]; 303.15 K) [kg/m3]	mass density ([1]; 313.15 K) [kg/m3]	mass density ([2]; 293.15 K) [kg/m3]	viscosity ([2]; 298.15 K) [mPa·s]	mass density ([2]; 298.15 K) [kg/m3]	mass density ([2]; 303.15 K) [kg/m3]	mass density ([2]; 313.15 K) [kg/m3]
C[S+](C)[O-] [dimethyl sulfoxide] + O=C1CCCO1	1100.2 ± 1	1.985 ± 0.025	1095.2 ± 1	1090.2 ± 1	1080.2 ± 1	–	–	–	–	–
O=C1CCCO1 [γ-butyrolactone]	–	–	–	–	–	1129.4 ± 1	1.72 ± 0.024	1124.5 ± 1	1119.6 ± 1	1109.8 ± 1
C[S+](C)[O-] [dimethyl sulfoxide]	–	–	–	–	–	1100.2 ± 1	1.985 ± 0.025	1095.2 ± 1	1090.2 ± 1	1080.2 ± 1
